Measurements from patent US20100022483A1, “Substituted Tetracycline Compounds” (Paratek Pharmaceuticals, Inc., priority 2008, published 2010).
Converted amounts (≈) assume the structure as drawn. Where two headings read alike, the source gives them in different places.

Assays:
[1] = Mammalian cytotoxicity assay (resazurin), COS-1 cells; type: cell-based; settings: African green monkey, read-out: Cytotox. COS-1
Description: (§1) COS-1 and CHO-K1 cell suspensions were prepared, seeded into 96-well tissue culture treated black-walled microtiter plates (density determined by cell line), and incubated overnight at 37° C., in 5% CO2 and approximately 95% humidity. The following day, serial dilutions of compound were prepared under sterile conditions and transferred to cell plates. Cell/Compound plates were incubated under the above conditions for 24 hours. Following the incubation period, media/compound was aspirated and 50 μl of resazurin (0.042 mg/ml in PBS w/Ca and Mg) is added. The plates were then incubated under the above conditions for 2 hours and then placed in the dark at room temperature for an additional 30 minutes. Fluorescence measurements were taken (excitation 535 nm, emission 590 nm). The IC50 (concentration of compound causing 50% growth inhibition) was then calculated. Table 3 includes IC50 data for several substituted tetracycline compounds.

gram negative bacteria = test: In vitro anti-bacterial activity assay (broth dilution MIC), gram negative bacteria; type: cell-based, E. coli
Excerpt: (§2) Bacterial infections may be caused by a wide variety of gram positive and gram negative bacteria. Some of the compounds of the invention are useful as antibiotics against organisms which are resistant and/or sensitive to other tetracycline compounds. The antibiotic activity of the tetracycline compounds of the invention may by using the in vitro standard broth dilution method described in Waitz, J. A., CLSI, Document M7-A2, vol. 10, no. 8, pp. 13-20, 2nd edition, Villanova, Pa. (1990).
(§3) The following assay was used to determine the efficacy of the tetracycline compounds against gram positive and gram negative bacteria. 2 mg of each compound was dissolved in 100 μl of DMSO. […] The tetracycline compound solutions were diluted to 50 μL volumes, with a test compound concentration of 0.098 μg/ml. Optical density (OD) determinations were made from fresh log-phase broth cultures of the test strains. Dilutions were made to achieve a final cell density of […] CFU/ml. At OD=1, cell densities for different genera were approximately:
(§4) 50 μl of the cell suspensions were added to each well of microtiter plates. The final cell density was approximately 5×10^5 CFU/ml. These plates were incubated at 35° C. in an ambient air incubator for approximately 18 hours. The plates were read with a microplate reader and were visually inspected when necessary. The MIC was defined as the lowest concentration of the tetracycline compound that inhibits growth. Table 3 includes MIC data for several substituted tetracycline compounds.

3T3 fibroblast cells = test: In vitro phototoxicity assay (neutral red; UV light-treated vs dark control plates); type: cell-based; settings: for Photo Toxicity UV Tox50: UV light 50 minutes; for Photo Toxicity Dark Tox50: dark control plate
Description: 3T3 fibroblast cells were harvested and plated at a concentration of 1×10^5 cells/mL and the plates were incubated overnight at 37° C., in 5% CO2 and approximately 95% humidity. On the following day the medium was removed from the plates and replaced with Hanks' Balanced Salt Solution (HBSS). Compound dilutions were made in HBSS and added to the plates. For each compound tested, a duplicate plate was prepared that was not exposed to light as a control for compound toxicity. Plates were then incubated in a dark drawer (for controls), or under UV light (meter reading of 1.6-1.8 mW/cm^2) for 50 minutes. Cells were then washed with HBSS, fresh medium was added, and plates were incubated overnight as described above. The following day neutral red was added as an indicator of cell viability. The plates were then incubated for an additional 3 hours. Cells were then washed with HBSS and blotted on absorbent paper to remove excess liquid. A solution of 50% EtOH, 10% glacial acetic acid was added and after 20 minutes incubation the plate's absorbance at 535 nm was read using a Wallac Victor 5 spectrophotometer. The phototoxicity reflected the difference between the light-treated and control cultures. Table 3 includes phototoxicity (μM) data for several substituted tetracycline compounds.

in vitro = type: cell-based; settings: Chinese hamster, Cytotox. CHO-K1
Description: as §1

gram positive bacteria = test: In vitro anti-bacterial activity assay (broth dilution MIC), gram positive bacteria; type: cell-based, S. aureus; settings: 18 h
Excerpt: as §2, §3, §4

[2] = Escherichia coli, 18 h, E. coli D1 209, read-out: Median MIC's G− E. coli D1 209
[3] = Escherichia coli, 18 h, E. coli MG 1655, read-out: Median MIC's G− E. coli MG 1655
[4] = Escherichia coli, ATCC25922, 18 h, E. coli ATCC 25922, read-out: Median MIC's G− E. coli ATCC 25922
[5] = Pseudomonas aeruginosa, 18 h, P. aeruginosa K201 PAO6609, read-out: Median MIC's G− P. aeruginosa K201 PAO6609
[6] = Staphylococcus aureus, S. aureus MRSA5, read-out: Median MIC's G+ S. aureus MRSA5
[7] = Staphylococcus aureus, S. aureus RN450, read-out: Median MIC's G+ S. aureus RN450
[8] = Streptococcus pneumoniae, S. pneumoniae 157E-Strep, read-out: Median MIC's G+ S. pneumoniae 157E-Strep

Compound | IC50 at 24 h [1] [µM] | MIC (gram negative bacteria; [2]) [µg/mL] | MIC (gram negative bacteria; [3]) [µg/mL] | MIC (gram negative bacteria; [4]) [µg/mL] | MIC (gram negative bacteria; [5]) [µg/mL] | Photo Toxicity UV Tox50 (3T3 fibroblast cells) [µM] | Photo Toxicity Dark Tox50 (3T3 fibroblast cells) [µM] | IC50 at 24 h (in vitro) [µM] | MIC (gram positive bacteria; [6]) [µg/mL] | MIC (gram positive bacteria; [7]) [µg/mL] | MIC (gram positive bacteria; [8]) [µg/mL]
CC1CCN(CC(=O)c2ccc(O)c3c2C[C@H]2C[C@H]4[C@H](N(C)C)C(O)=C(C(N)=O)C(=O)[C@@]4(O)C(O)=C2C3=O)CC1 [BH, 7-[2-(4-methyl-piperidin-1-yl)acetyl]-Sancycline] | > 136 | 0.25 (≈ 0.452 µM) | 0.06 (≈ 0.108 µM) | 0.06 (≈ 0.108 µM) | 32 (≈ 57.8 µM) | >135.66 | >135.66 | > 136 | 0.06 (≈ 0.108 µM) | 0.06 (≈ 0.108 µM) | 0.06 (≈ 0.108 µM)
CN(C)[C@@H]1C(O)=C(C(N)=O)C(=O)[C@@]2(O)C(O)=C3C(=O)c4c(O)ccc(-c5ccc(CNCc6cccnc6)o5)c4C[C@H]3C[C@@H]12 [BI] | > 39.3 | 2 (≈ 3.33 µM) | 4 (≈ 6.66 µM) | 1 (≈ 1.66 µM) | 64 (≈ 107 µM) | >126.75 | >126.75 | > 26 | 8 (≈ 13.3 µM) | 0.06 (≈ 0.0999 µM) | 0.06 (≈ 0.0999 µM)
CN(Cc1cccnc1)Cc1cccc(-c2ccc(O)c3c2C[C@H]2C[C@H]4[C@H](N(C)C)C(O)=C(C(N)=O)C(=O)[C@@]4(O)C(O)=C2C3=O)c1 [BJ] | > 12.3 | 32 (≈ 51.2 µM) | 64 (≈ 102 µM) | 16 (≈ 25.6 µM) | 64 (≈ 102 µM) | >122.6 | >122.6 | > 25.1 | 2 (≈ 3.2 µM) | 0.25 (≈ 0.4 µM) | 0.06 (≈ 0.096 µM)
CN(C)Cc1ccc(-c2ccc(O)c3c2C[C@H]2C[C@H]4[C@H](N(C)C)C(O)=C(C(N)=O)C(=O)[C@@]4(O)C(O)=C2C3=O)[nH]1 [BK] | > 148 | 64 (≈ 119 µM) | 4 (≈ 7.45 µM) | 4 (≈ 7.45 µM) | 32 (≈ 59.6 µM) | >147.66 | >147.66 | > 148 | 4 (≈ 7.45 µM) | 0.25 (≈ 0.466 µM) | 0.13 (≈ 0.242 µM)
CN(CCC#N)Cc1cccc(-c2ccc(O)c3c2C[C@H]2C[C@H]4[C@H](N(C)C)C(O)=C(C(N)=O)C(=O)[C@@]4(O)C(O)=C2C3=O)c1 [BL] | > 13.6 | 16 (≈ 27.3 µM) | 16 (≈ 27.3 µM) | 4 (≈ 6.82 µM) | 64 (≈ 109 µM) | >136.45 | >136.45 | > 13.6 | 2 (≈ 3.41 µM) | 0.06 (≈ 0.102 µM) | 0.06 (≈ 0.102 µM)
CN(CCOC(C)(C)C)Cc1cccc(-c2ccc(O)c3c2C[C@H]2C[C@H]4[C@H](N(C)C)C(O)=C(C(N)=O)C(=O)[C@@]4(O)C(O)=C2C3=O)c1 [BM] | 22.8 | 4 (≈ 6.31 µM) | 8 (≈ 12.6 µM) | 4 (≈ 6.31 µM) | 64 (≈ 101 µM) | 5.93 | >104.43 | 21.6 | 2 (≈ 3.16 µM) | 0.13 (≈ 0.205 µM) | 0.06 (≈ 0.0947 µM)
CN(C)[C@H]1C(O)=C(C(N)=O)C(=O)[C@@]2(O)C(O)=C3C(=O)c4c(O)ccc(-c5cccc(CCCN6CCCCC6)c5)c4C[C@H]3C[C@@H]12 [BN] | > 63 | 32 (≈ 52 µM) | 32 (≈ 52 µM) | 16 (≈ 26 µM) | 64 (≈ 104 µM) | 33.41 | >200 | > 63 | 32 (≈ 52 µM) | 4 (≈ 6.5 µM) | 0.25 (≈ 0.406 µM)
COCCN(C)CC(=O)c1ccc(O)c2c1C[C@H]1C[C@H]3[C@H](N(C)C)C(O)=C(C(N)=O)C(=O)[C@@]3(O)C(O)=C1C2=O [BO] | > 154 | 64 (≈ 118 µM) | 2 (≈ 3.68 µM) | 2 (≈ 3.68 µM) | 64 (≈ 118 µM) | >154.09 | >154.09 | > 154 | 4 (≈ 7.36 µM) | 0.5 (≈ 0.92 µM) | 0.25 (≈ 0.46 µM)
CN(C)[C@@H]1C(O)=C(C(N)=O)C(=O)[C@@]2(O)C(O)=C3C(=O)c4c(O)ccc(C(=O)CNCC(C)(C)C)c4C[C@H]3C[C@@H]12 [BP] | > 42.9 | 64 (≈ 118 µM) | 32 (≈ 59.1 µM) | 32 (≈ 59.1 µM) | 64 (≈ 118 µM) | >138.32 | >138.32 | > 42.9 | 16 (≈ 29.5 µM) | 2 (≈ 3.69 µM) | 2 (≈ 3.69 µM)
COCCNCc1ccoc1-c1ccc(O)c2c1C[C@H]1C[C@H]3[C@H](N(C)C)C(O)=C(C(N)=O)C(=O)[C@@]3(O)C(O)=C1C2=O [BQ] | > 141 | 64 (≈ 113 µM) | 1 (≈ 1.76 µM) | 1 (≈ 1.76 µM) | 64 (≈ 113 µM) | >140.51 | >140.51 | > 141 | 4 (≈ 7.05 µM) | 0.06 (≈ 0.106 µM) | 0.06 (≈ 0.106 µM)
CCOC(=O)N1CCN(CC(=O)c2ccc(O)c3c2C[C@H]2C[C@H]4[C@H](N(C)C)C(O)=C(C(N)=O)C(=O)[C@@]4(O)C(O)=C2C3=O)CC1 [BR] | > 40.7 | 64 (≈ 104 µM) | 8 (≈ 13.1 µM) | 8 (≈ 13.1 µM) | 64 (≈ 104 µM) | >131.28 | >131.28 | > 40.7 | 0.5 (≈ 0.816 µM) | 0.06 (≈ 0.0979 µM) | 0.06 (≈ 0.0979 µM)
CC(=O)N1CCN(CC(=O)c2ccc(O)c3c2C[C@H]2C[C@H]4[C@H](N(C)C)C(O)=C(C(N)=O)C(=O)[C@@]4(O)C(O)=C2C3=O)CC1 [BS] | > 145 | 64 (≈ 110 µM) | 32 (≈ 54.9 µM) | 64 (≈ 110 µM) | 64 (≈ 110 µM) | >144.92 | >144.92 | > 145 | 8 (≈ 13.7 µM) | 1 (≈ 1.72 µM) | 1 (≈ 1.72 µM)
CN(C)[C@@H]1C(O)=C(C(N)=O)C(=O)[C@@]2(O)C(O)=C3C(=O)c4c(O)ccc(C(=O)CNCC(F)(F)F)c4C[C@H]3C[C@@H]12 [BT] | > 47 | 64 (≈ 116 µM) | 8 (≈ 14.5 µM) | 2 (≈ 3.61 µM) | 64 (≈ 116 µM) | >151.65 | >151.65 | > 47 | 2 (≈ 3.61 µM) | 0.06 (≈ 0.108 µM) | 0.06 (≈ 0.108 µM)
CN(C)[C@@H]1C(O)=C(C(N)=O)C(=O)[C@@]2(O)C(O)=C3C(=O)c4c(O)ccc(C(=O)CN5CCN(C6CCCCC6)CC5)c4C[C@H]3C[C@@H]12 [BU] | > 123 | 2 (≈ 3.21 µM) | 0.5 (≈ 0.803 µM) | 1 (≈ 1.61 µM) | 64 (≈ 103 µM) | >122.93 | >122.93 | > 123 | 1 (≈ 1.61 µM) | 0.13 (≈ 0.209 µM) | 0.06 (≈ 0.0964 µM)
